Assay type in all cases: in vivo
Test [1] has as its system telogen cycle female C3H mice. Nature of the test: Stimulation of hair growth by topical application of a peptide-copper complex (Example 14). On the procedure: This example illustrates the stimulation of hair growth in warm-blooded animals by topical application of a peptide-copper complex. In this experiment, telogen cycle female C3H mice (60-65 days old) were prepared by clipping their posterior dorsal region (i.e., day 1). Topical application of peptide-copper complexes was performed twice per day (Monday-Friday) using a cotton-tipped applicator which delivered approximately 0.1 ml per treatment. The topical formulation used in this experiment contained the following components:
Topical application of the above formulation continued until the onset of follicle pigmentation, which proceeds the emergence of the hair shall. Measurement of the degree of response was performed using digital image analysis at weekly intervals, beginning at day 14. Data was expressed as the percent treatment area response using the following equation:
% treatment area=(growth area/treatment area)×100
For comparison purposes to illustrate the effect of hydrophobic amino acid residues on hair growth after topical application, AHK:Cu was compared to AHF:Cu. In this experiment, topical formulations containing AHK:Cu (1.1:1) and AHF:Cu (1.1:1) were prepared at a concentration of 0.5% and 0.1% (w/w) as indicated above. Hair growth response (i.e., "Percent Treatment Area") was determined at day 20, day 27 and at day 34.

The subject of test [2] is C3H mice (telogen hair growth phase). Briefly: Stimulation of hair growth by intradermal injection of peptide-copper complexes containing D-amino acids (Example 13). The note with it: peptide to copper 1.1:1. On the procedure: This example illustrates the stimulation of hair growth in warm-blooded animals by intradermal injection of AHK:Cu (1.1:1) utilizing a D-amino acids inplace of the naturally occurring L-amino acid.
In this experiment, the backs of C3H mice (60 days old, telogen hair growth phase) were closely clipped on day 1 using an electric clipper. A sterile saline solution containing AHK:Cu (1.1:1), or AHK:Cu (1.1:1) containing a D-amino acid, was then injected intradermally (i.e., infiltrated under the skin) at two locations within the clipped areas of the mice. Injection at two locations provided two test locations within the clipped area of each mouse. Each injection (0.1 ml) contained either 1.2 or 1.8 μmoles per injection of peptide-copper complex in the sterile saline solution. A group of saline injected mice (0.1 ml) served as controls. Following injection of peptide copper complex, indications of hair growth were seen within 10 days. The first visual signs were a darkening of the skin in a circular region surrounding the injection site. The size of this region is generally dose dependent, increasing with an increase in dose. The 0.1 ml injections used in this experiment produced a circle of hair growth measuring approximately 0.5 cm^2 to 5 cm^2 in diameter. […]
The degree of hair growth was determined by measuring the total area of hair growth at the two injection sites.

The test system is the same in test [3]. Briefly: Stimulation of hair growth after intradermal injection of peptide-copper complexes (Example 12). The note with it: peptide to copper 2:1, day 21; for Number of Animals Growing Hair: responders/injected mice. On the procedure: The following example illustrates the stimulation of hair growth in warm-blooded animals after intradermal injection of representative peptide-copper complexes of this invention.
As in Example 11 above, the backs of C3H mice (60 days old, telogen hair growth phase) were closely clipped on day 1 using an electric clipper. A sterile saline solution containing the indicated peptide-copper complex was then injected intradermally (i.e., infiltrated under the skin) at two locations within the clipped areas of the mice. Injection at two locations provided two test locations within the clipped area of each mouse. Each injection (0.1 ml) contained between 0.75 to 1.5 mg of the peptide-copper complex within the sterile saline solution. A group of saline injected mice (0.1 ml) served as controls. Following injection of the peptide-copper complexes, indications of hair growth were seen within 10 days. The first visual signs were a darkening of the skin in a circular region surrounding the injection site. The size of this region is generally dose dependent, increasing with an increase in dose. The 0.1 ml injections used in this experiment produced a circle of hair growth measuring approximately 0.5 cm^2 to 5 cm^2 in diameter. Active hair growth occurred between 14-20 days following injection, with a maximum effect seen by day 29. Both the number of mice growing hair at the injection site and the diameter of the hair growth region were determined at day 21.

The test system of test [4] is Sprague-Dawley rat pups treated with cytosine arabinoside (Ara-C). Nature of the test: Localized maintenance of hair follicle viability by intradermal injection during Ara-C chemotherapy (Example 16). The note with it: for Degree of Alopecia (mean) at the site of injection: day 10, grade 0 normal to 4 total loss of hair. The source says: The following experiment illustrates the localized maintenance of hair follicle viability (i.e., growth) by intradermal (local) injection of the peptide-copper complex AHK:Cu during treatment with the chemotherapeutic agent cytosine arabinoside (Ara-C).
In this experiment, Sprague-Dawley rat pups (age 8 days) were maintained in 5 litters (n=10-11/litter) for the duration of this study. On day 0, litters received intradermal (ID) injections of AHK:Cu (1:1) in a sterile saline solution, or a saline control (1 injection per animal, 0.05 ml per injection). Each litter contained 2 normal control animals where no AHK:Cu or Ara-C was administered (i.e., saline only). On day 1, designated animals began a series of 7 consecutive daily intraperitoneal (IP) injections with Ara-C (25 mg/kg). On day 10, all animals were evaluated for the extent of hairloss (alopecia) at the injection sites using the rating identified in Example 15.
Ara-C injections caused significant hair loss by day 5-6 in most animals. In order to evaluate the stimulatory effect of AHK:Cu, the degree of hairloss was evaluated at the injection site daily. […] Table 9 presents the results as evaluated on day 10 using the previously described rating scale, with the "Degree of Alopecia" being expressed as the average response seen at the site of injection.

Where [5] appears, read: topical 0.1% w/w twice per day, peptide to copper 1.1:1, day 20.
Where [6] appears, read: topical 0.1% w/w twice per day, peptide to copper 1.1:1, day 27.
Setting [7] is: topical 0.1% w/w twice per day, peptide to copper 1.1:1, day 34.
The mark [8] stands for this setting: topical 0.5% w/w twice per day, peptide to copper 1.1:1, day 20.
Where [9] appears, read: topical 0.5% w/w twice per day, peptide to copper 1.1:1, day 27.
Setting [10] is: topical 0.5% w/w twice per day, peptide to copper 1.1:1, day 34.

For the substance “alanyl-histidyl-phenylalanine:copper [AHF:Cu]”, the “Percent Treatment Area (growth area/treatment area x 100)” value is on record as 0.00% in test [1] (setting [5]); 0.00% in test [1] (setting [6]); 12.91 ± 12.91% in test [1] (setting [7]); 55.05 ± 17.44% in test [1] (setting [8]); 100% in test [1] (setting [9]); 100% in test [1] (setting [10]).

Consider alanyl-histidyl-lysine:copper [AHK:Cu], for which, in test [1] (AHK:Cu compared to AHF:Cu, topical), the “Relative hair growth activity after topical administration” value is reported as “more active in stimulating hair growth”. The “Percent Treatment Area (growth area/treatment area x 100)” value was 1.29 ± 1.29% in test [1] (setting [5]); 23.07 ± 18.84% in test [1] (setting [6]); 90.14 ± 2.96% in test [1] (setting [7]); 75.87 ± 7.64% in test [1] (setting [8]); 100% in test [1] (setting [9]); 100% in test [1] (setting [10]). In addition, the “Area of Hair Growth (total area at the two injection sites)” value stood at 3.07 ± 0.76 in test [2] (1.2 μmoles per injection intradermal) and 3.24 ± 1.17 in test [2] (1.8 μmoles per injection intradermal). Besides, the “Area of Hair Growth” value was under 1 cm diameter in test [3] (0.75 mg/injection intradermal) and over 1 cm diameter in test [3] (1.50 mg/injection intradermal). The figures for the “Number of Animals Growing Hair” value in test [3] (0.75 mg/injection intradermal) and in test [3] (1.50 mg/injection intradermal) were 1/4 and 4/4, respectively. Further, the “Degree of Alopecia (mean) at the site of injection” value in test [4] (0.05 mg per injection, 3.5 mg/kg intradermal day 0, peptide to copper 1:1, Ara-C 25 mg/kg IP x 7 days) is recorded as 3.25; in test [4] (0.10 mg per injection, 7.0 mg/kg intradermal day 0, peptide to copper 1:1, Ara-C 25 mg/kg IP x 7 days) it was 2.38; in test [4] (0.25 mg per injection, 17.5 mg/kg intradermal day 0, peptide to copper 1:1, Ara-C 25 mg/kg IP x 7 days), 1.44; in test [4] (0.50 mg per injection, 35.0 mg/kg intradermal day 0, peptide to copper 1:1, Ara-C 25 mg/kg IP x 7 days) it was 1.11. Besides, in test [4] (intradermal, with Ara-C, follicles away from the injection dystrophic and non-functional), the “Histology of hair follicles at the injection site” value is “normal appearing and functioning anagen hair follicles”. The “Radius of retention of hair around the injection site” value in test [4] (intradermal, with Ara-C, most notably in the 0.1 to 0.5 mg dose groups) amounted to 0.25 cm.
